Measurements from paper PMC10710507 (Nature Communications, 2023).
Square brackets hold non-standard residues; d marks the D form. Ends that are not written are not given here. Phe(4-CF3) = N[C@@H](Cc1ccc(C(F)(F)F)cc1)C(=O)O

Key:
[1] = test system: free fatty acid receptor 2, FFA2; conditions: cited from earlier work
From the text: Whether NT binds to the orthosteric binding pocket of the intermediate state or occupies different conformations in distinct pockets remains to be fully answered. […] Intermediate-state binding pockets have been attributed to a sequential activation mechanism of the free fatty acid receptor 2, FFA2, by the previously considered allosteric modulator, 4-CMTB[62]. 4-CMTB binds to the orthoste ...

[2] = test system: NTS1; conditions: cited from earlier work
From the text: The ECL2 of many GPCRs forms a lid over the ligand-bound orthosteric binding pocket of the receptor via interaction with the N-terminal region or ECL3 of the receptor, which can increase the affinity of the ligand by slowing down its dissociation rate[35],[37]. Although such a formation has not been confirmed experimentally for NTS1, all structures published to date on the complex of NT with NTS1 show close contacts between the N-terminal region and the ECL2 of NTS1 (PDB: 4XEE, 6YVR, 4BUO)[21],[33],[34]. However, the structure of these parts of NTS1 in the apo-state or when complexed with smal ...

[3] = test system: enNTS1; assay: Ligand-observed 19F NMR / 19F STD, enNTS1 complex; format: binding, rat; conditions: 298 K, pH 7.4
[4] = test system: enNTS1-R213; assay: Ligand-observed 19F NMR / 19F STD, enNTS1-R213 complex; format: binding, rat; conditions: 298 K, pH 7.4
Description: The peptide-receptor complex was formed by addition of a 10-fold excess of peptide to receptor. The solution was incubated on ice for one hour, followed by buffer exchange to remove free peptide in 50 mM potassium phosphate pH 7.4, 100 mM NaCl, 0.05% DDM, 50 µM EDTA, 0.02% NaN3. 100 μM of freshly formed complexes were mixed with 10 μM free receptor to ensure excess receptor. The samples were adjusted to 10% D2O, 500 μM DSS and 20 μM TFA as lock nuclei, ^1H and ^19F references, respectively.
For NMR experiments in the presence of Gαiq, enNTS1-R213 was incubated on ice with 5-fold Y11tfmF-NT8-13 over receptor for 30 min and then 5-fold Gαiq over receptor with incubation for another 30 min. […]
^19F saturation transfer difference (STD) experiments were acquired using the STDDiff pulse sequence from the Bruker library. […] These were interleaved with equivalent off-resonance spectra, where the offset was set equidistant to the monitored and saturated peaks. The intensities of the monitored peak in the presence of on-resonance saturation were normalized against the spectra collected in the absence of saturation and subtracted from the intensities in the presence of the equidistant off-resonance spectra to account for off-resonance effects. […]

[5] = test system: enNTS1; assay: Cell surface competition binding assay, enNTS1; design: species or system rat; conditions: HEK293F cells, competition with 5 nM Cy5-NT8-13, 1 h, room temperature, flow cytometry, n = 4
Description: 100,000 HEK293F cells (Invitrogen) stably expressing receptor and the cytosolic mCherry fluorophore were suspended in complete phenol red free DMEM (10% FBS, 1% L-Glutamine, 1% penicillin-streptomycin) and were added to the relevant ligand concentrations in the presence of 5 nM Cy5-NT8-13 for enNTS1 and wt-rNTS1 or 2 nM FAM-NT8-13 for rNTS1-R213L. Cells were then gently agitated on an orbital shaker in the dark for 1 h at room temperature for ligand binding to reach a state of equilibrium. The mean fluorescence intensity of bound FAM-NT8-13 and Cy5-NT8-13 was measured with a CytoflexS (Beckman-Coulter) flow cytometer using the 525/40 and 660/20 filter, respectively. Data was then analysed using the One site – Fit Ki function on GraphPad Prism (version: 9.3.1, Graphpad Software, San Diego, CA). The data for enNTS1 and wt-NTS1 are mean of four replicates (n = 4) and the assays with rNTS1-R213L are performed in triplicates (n = 3).
Supplementary Figure 3. Functional characterization of the NT peptides used in this study. The cell-surface binding of peptides to (a) wt-rNTS1 and enNTS1 (b) rNTS1-R213L. The competition binding curves are for NT8-13 (black circles) , Y11tfmF-NT8-13 (red triangles).
Cy5-labellled NT8-13 and FAM -labelled NT8-13 was used as a fluorescent competitor for investigating the binding. […]

[6] = test system: wt-rNTS1; assay: G protein BRET assay, wt-rNTS1; format: cell-based, rat; conditions: HEK293T cells, n = 3
Description: (§1) 500,000 HEK293T cells were seeded per well in a 6-well plate in complete DMEM (10% FBS, 1% L-Glutamine, 1% penicillin-streptomycin). Cells were transfected the following day with a solution of Opti-mem and lipofectamine 2000 at a quantity of 1 µL/1 µg of DNA. For β-arrestin-2 recruitment assay cells were co-transfected with 250 ng of either pcDNA 3.1 zeo-HA-FLAG-wt-rNTS1-nLuc or pcDNA 3.1 zeo-HA-FLAG-rNTS1-R213L-nLuc and with 600 ng of pcDNA human β-arrestin-2-Venus. In G protein BRET assays, cells were co-transfected with 750 ng of pCSC-rNTS1-IRES-mCherry, pCSC-rNTS1-R213L-IRES-mCherry or pCSC-enNTS1-IRES-mCherry and with 250 ng of Gαi (for enNTS1) or Gq (for rNTS1 and rNTS1-R213L) BRET biosensor. […] The plate was then incubated at 37 °C for 10 min in a PHERAstar® FSX microplate reader (BMG LABTECH). Dual luminescence of 450/535 nm was then measured for 3 min before manually adding 10 µL of 10x ligand concentration or vehicle to respective wells before completing the time course measurement. The BRET ratio was calculated as Venus emission to nLuc emission. […] Concentration–response curves were calculated by first integrating the area under the BRET ratio over time plot using the Area Under the Curve function and then plotted against ligand concentration. […]

[7] = test system: wt-rNTS1; assay: β-arrestin-2 recruitment BRET assay, wt-rNTS1; format: cell-based, rat; conditions: HEK293T cells, β-arrestin-2-Venus, 37 °C, n = 3
Description: as §1

[8] = 19F NMR interaction with DDM micelles; format: physicochemical; conditions: 298 K, Supplementary Fig. 5b
Description: All NMR experiments were performed on a Bruker 700 MHz Avance IIIHD spectrometer running Topspin 3.2.7 and equipped with a ^1H/^13C/^15N triple-resonance TCI cryoprobe, where the proton channel was tuned to ^19F, ~658 MHz. The 1D spectra were collected in a pulse-acquire manner at 298 K, with the carrier frequency set at −65 ppm. 512 to 2048 scans were collected per spectrum with 16 K of data points and a spectral width of 49 ppm. 2680 scans were collected for the sample of Y11tfmF-NT8-13 in complex with enNTS1 in the presence of Gαiq. The spectrum on the complex of ^19F-labelled peptides and ^19F-labelled receptor were processed in Topspin vs3.4 using, respectively, 50 Hz and 10 Hz line broadening and zero filling prior to Fourier transformation. Spectral deconvolution was performed in MNova (version: 10.0.2-15465, Mestrelab Research).

[9] = target: T1, wt-rNTS1 (wild-type rat neurotensin receptor 1) on HEK293F cells (rat, UniProt P20789 1-424); assay: flow cytometry on cells; cell surface competition: 100,000 HEK293F cells stably expressing receptor, unlabelled ligand varied against 5 nM Cy5-NT8-13, 1 h at room temperature, mCherry-positive single cells, One site - Fit Ki; conditions: one partner purified
T1 construct: also called wt-NTS1; source: HEK293F cells stably expressing receptor and cytosolic mCherry
T1 sequence (P20789 whole entry): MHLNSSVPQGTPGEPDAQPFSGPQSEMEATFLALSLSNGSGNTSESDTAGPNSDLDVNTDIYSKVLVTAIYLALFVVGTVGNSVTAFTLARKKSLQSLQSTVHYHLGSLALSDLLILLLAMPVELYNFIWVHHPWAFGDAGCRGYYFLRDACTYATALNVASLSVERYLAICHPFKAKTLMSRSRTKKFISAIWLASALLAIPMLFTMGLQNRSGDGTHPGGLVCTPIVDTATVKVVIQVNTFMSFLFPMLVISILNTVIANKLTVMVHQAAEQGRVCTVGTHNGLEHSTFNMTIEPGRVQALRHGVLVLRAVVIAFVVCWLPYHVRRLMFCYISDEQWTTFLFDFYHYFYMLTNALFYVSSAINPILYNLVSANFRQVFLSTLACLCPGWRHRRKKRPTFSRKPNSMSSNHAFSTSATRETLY

Molecule: CC(C)C(C(=O)Nc1nccs1)c1ccc(Cl)cc1 (centres unmarked) [4-CMTB]
- binding and signalling at FFA2 [1]: binds to the orthosteric binding pocket of FFA2, where it primarily initiates downstream orthosteric signalling followed by diffusion into an allosteric pocket

Molecule: COc1cccc(OC)c1-c1cc(C(=O)N[C@@H](CC(C)C)C(=O)O)nn1-c1ccnc2cc(Cl)ccc12 [RTI-3a]
- pharmacological class at NTS1 [2]: partial agonist

Molecule: COc1cccc(OC)c1-c1cc(C(=O)NC2(C(=O)O)C3CC4CC(C3)CC2C4)nn1-c1ccnc2cc(Cl)ccc12 (centres unmarked) [SR48692]
- pharmacological class at NTS1 [2]: inverse agonists

Molecule: COc1cccc(OC)c1-c1cc(C(=O)NC2(C(=O)O)C3CC4CC(C3)CC2C4)nn1-c1ccc(C(=O)N(C)CCCN(C)C)cc1C(C)C (centres unmarked) [SR142948A]
- pharmacological class at NTS1 [2]: inverse agonists

Molecule: Y11tfmF-NT8-13: truncated version of 19F-NT (RRP[Phe(4-CF3)]IL)
- exchange rate constant from S1 to S2, k12 [3]: 1.23 s⁻¹
- exchange rate constant from S2 to S1, k21 [3]: 0.08 s⁻¹
- exchange rate constant k12 (S1 to S2) [4]: 0.14 s⁻¹
- exchange rate constant k21 (S2 to S1) [4]: 0.26 s⁻¹

Molecule: Y11tfmF-NT: fluorinated analogue of NT, Tyr11 substituted with para-trifluoromethyl-phenylalanine (ELYENKPRRPFIL; para-trifluoromethyl-phenylalanine (tfmF) at position 11; pyroglutamate (pE) at position 1 as in NT)
- affinity for enNTS1 (effect of CF3 moiety) [5]: unaffected
- activation of wt-rNTS1 ([6]; BRET assays): can fully activate wt-rNTS1
- efficacy in G protein BRET assay ([6]; Gq BRET biosensor, 37 °C): equally efficacious
- efficacy in β-arrestin recruitment BRET assay [7]: equally efficacious
- effect of DDM on 19F NMR signal of the peptide [8]: not perturbed in the presence of DDM

B1: Y11tfmF-NT (peptide)
peptide: ELYENKPRRPFIL
modifications: para-trifluoromethyl-phenylalanine (tfmF) at position 11; pyroglutamate (pE) at position 1 as in NT
notes: in this molecule Tyr11 is replaced by tfmF (see substitutions); numbers count on: the mature neurotensin peptide; The new residue is the unnatural amino acid para-trifluoromethyl-phenylalanine, written F in the substitution row; also called 19F-NT; fluorinated analogue of NT; source: synthetic peptide (Fmoc solid phase synthesis, reverse-phase HPLC)
- fold reduction of affinity against NT [9]: 100 fold
